According to US7638535B2, “4-(aminomethyl)-piperidine benzamides as 5HT4-antagonists” (Janssen Pharmaceutica N.V., priority 2003, dated 2009):

The compounds below were run against T1, h5-HT4b (Homo sapiens, UniProt Q13639) (assay: 5HT4 antagonism: [3H]GR113808 binding to membranes of h5-HT4b-HEK 293 clone 9 cells). Settings: displacement of [3H]GR113808 0.1 nM, h5-HT4b-HEK 293 membranes, 30 min at 25° C.; read-out: pIC50 (5HT4 antagonistic data) (converted).
T1 construct: expressed in transfected cells; host or cells: HEK 293 (clone 9), membrane preparation
T1 sequence (Q13639 whole entry): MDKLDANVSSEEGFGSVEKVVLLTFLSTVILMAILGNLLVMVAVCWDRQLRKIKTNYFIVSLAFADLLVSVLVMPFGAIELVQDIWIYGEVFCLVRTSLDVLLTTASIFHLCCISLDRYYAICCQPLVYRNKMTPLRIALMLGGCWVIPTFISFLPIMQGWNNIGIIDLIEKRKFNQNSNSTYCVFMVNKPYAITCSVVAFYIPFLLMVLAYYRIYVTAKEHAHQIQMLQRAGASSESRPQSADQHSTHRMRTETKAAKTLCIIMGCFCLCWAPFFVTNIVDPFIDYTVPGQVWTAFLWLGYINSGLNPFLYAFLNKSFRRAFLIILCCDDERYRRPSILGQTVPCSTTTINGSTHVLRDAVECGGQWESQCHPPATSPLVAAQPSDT
Experimental: h5-HT4b-HEK 293 clone 9 cells were cultured in 150 mm Petri dishes and washed twice with cold PBS. The cells were then scraped from the plates and suspended in 50 mM Tris-HCl buffer, pH 7.4 and harvested by centrifugation at 23,500 rpm for 10 minutes. The pellet was resuspended in 5 mM Tris-HCl, pH 7.4 and homogenized with an Ultra Turrax homogenizer. The membranes were collected by centrifugation at 30,000 rpm for 20 min, resuspended in 50 mM Tris-HCl pH 7.4 and stored at −80° C. For the experiment, assay mixtures (0.5 ml) contained 50 μl of the tritiated ligand (5-HT4 antagonist [^3H]GR113808 0.1 nM) and 0.4 ml membrane preparation (15 μg protein/ml). 50 μl of 10% DMSO was added for total binding. 50 μl of 1 μM of (+)-trans-(1-butyl-3-hydroxy-4-piperidinyl)methyl 8-amino-7-chloro-2,3-dihydro-1,4-benzodioxin-5-carboxylate (a proprietary 5HT4 agonist of Janssen Pharmaceutica) was added for determination of non-specific binding.
The [^3H]GR113808 assay buffer was 50 mM HEPES-NaOH, pH 7.4. The mixtures were incubated for 30 min at 25° C. The incubation was terminated by filtration over a Unifilter 96 GF/B presoaked in 0.1% polyethylenimine, followed by six washing steps with 50 mM HEPES-NaOH, pH 7.4.

| Compound | IC50 [nM] |
| --- | --- |
| CCCCN1CC[C@@H](CNC(=O)c2cc(N)c(Br)c3c2OCCO3)[C@H](O)C1 [compound 153] | 13.8 |
| Cc1cc2c(c(C(=O)NC[C@@H]3CCN(CCCS(C)(=O)=O)C[C@H]3O)c1)OCCO2 [compound 237] | 1.45 |
| Nc1cc2c(c(C(=O)NC[C@@H]3CCN(CCCCO)C[C@H]3O)c1)OCCCO2 [compound 73] | 55 |
| COCc1cc2c(c(C(=O)NC[C@@H]3CCN(CCC4OCCO4)C[C@H]3O)c1)OCCCO2 [compound 126] | 18.2 |
| CCCCN1CCC(O)(CNC(=O)c2cc(C)cc3c2OCCCO3)CC1 [compound 245] | 2.14 |
| CC(C)OCCCN1CC[C@H](CNC(=O)c2cc(C#N)cc3c2OCCCO3)[C@@H](O)C1 [compound 219] | 1.86 |
| Nc1cc2c(c(C(=O)NC[C@@H]3CCN(CCCCO)C[C@H]3O)c1)OCCO2 [compound 98] | 14.8 |
| CNc1cc2c(c(C(=O)NC[C@@H]3CCN(CC4CCCO4)C[C@H]3O)c1)OCCCO2 (some centres unmarked) [compound 21] | 63.1 |
| Nc1cc(C(=O)NC[C@@H]2CCNC[C@H]2O)c2c(c1Cl)OCCCO2 [compound 188] | 832 |
| CO[C@@H]1CNCC[C@H]1CNC(=O)c1cc(C)cc2c1OCCCO2 [compound 204] | 83.2 |
| COCCCN1CC[C@@H](CNC(=O)c2cc(N)cc3c2OCCO3)[C@H](O)C1 [compound 109] | 36.3 |
| CCCNc1cc2c(c(C(=O)NC[C@@H]3CCN(CCCO)C[C@H]3O)c1)OCCCO2 [compound 151] | 89.1 |
| CCCCN1CC[C@@H](CNC(=O)c2cc(C#N)cc3c2OCCCO3)[C@H](OC)C1 [compound 209] | 17.8 |
| CCNc1cc2c(c(C(=O)NC[C@@H]3CCNC[C@H]3O)c1)OCCCO2 [compound 178] | 1410 |
| N#CCCCN1CC[C@@H](CNC(=O)c2cc(N)cc3c2OCCO3)[C@H](O)C1 [compound 6] | 57.5 |
| Nc1cc(C(=O)NC[C@@H]2CCNC[C@H]2O)c2c(c1Cl)OCCO2 [compound 8] | 372 |
| CCCCN1CC[C@@H](CNC(=O)c2cc(OC)cc3c2OCCCO3)[C@H](O)C1 [compound 195] | 3.63 |
| CNc1cc2c(c(C(=O)NC[C@@H]3CCN(CCCOC(C)C)C[C@H]3O)c1)OCCCO2 [compound 101] | 50.1 |
| Nc1cc(C(=O)NC[C@@H]2CCN(CCCC(=O)O)C[C@H]2O)c2c(c1Cl)OCCCO2 [compound 66] | 282 |
| N#CCCCN1CC[C@@H](CNC(=O)c2cc(N)c(Cl)c3c2OCCCO3)[C@H](O)C1 [compound 48] | 33.1 |
| CC1(CCCN2CC[C@@H](CNC(=O)c3cc(N)cc4c3OCCCO4)[C@H](O)C2)OCCO1 [compound 59] | 51.3 |
| COCCCN1CC[C@@H](CNC(=O)c2cc(NC(C)C)cc3c2OCCCO3)[C@H](O)C1 [compound 179] | 63.1 |
| COCCCCN1CCC(O)(CNC(=O)c2cc(C)cc3c2OCCCO3)CC1 [compound 239] | 19.1 |
| Nc1cc2c(c(C(=O)NC[C@@H]3CCN(CCCOC4CCCCC4)C[C@H]3O)c1)OCCCO2 [compound 49] | 25.7 |

| Compound | IC50 [nM] |
| --- | --- |
| Nc1cc2c(c(C(=O)NC[C@@H]3CCN(CCOCCO)C[C@H]3O)c1)OCCO2 [compound 86] | 132 |
| COCCCN1CC[C@@H](CNC(=O)c2cc(COC)cc3c2OCCCO3)[C@H](O)C1 [compound 124] | 26.9 |
| CNCCCCN1CC[C@@H](CNC(=O)c2cc(CC#N)cc3c2OCCCO3)[C@H](O)C1 [compound 216] | 44.7 |
| CC1(CCCN2CC[C@H](CNC(=O)c3cc(C#N)cc4c3OCCCO4)[C@@H](O)C2)OCCO1 [compound 220] | 2.51 |
| COCCCCN1CC[C@H](CNC(=O)c2cc(C)cc3c2OCCCO3)[C@H](O)C1 [compound 243] | 9.33 |
| CNc1cc2c(c(C(=O)NC[C@@H]3CCN(CCNc4nccnc4C)C[C@H]3O)c1)OCCCO2 [compound 95] | 36.3 |
| CNc1cc2c(c(C(=O)NC[C@@H]3CCN(CCCCO)C[C@H]3O)c1)OCCO2 [compound 97] | 15.8 |
| CNc1cc2c(c(C(=O)NC[C@@H]3CCN(Cc4ccc(F)cc4)C[C@H]3O)c1)OCCO2 [compound 56] | 17.8 |
| CO[C@@H]1CN(CCCC#N)CC[C@H]1CNC(=O)c1cc(C)cc2c1OCCCO2 [compound 215] | 5.01 |
| Nc1cc(C(=O)NC[C@@H]2CCN(CC3CCCO3)C[C@H]2O)c2c(c1Br)OCCO2 (some centres unmarked) [compound 137] | 27.5 |
| CC(C)Nc1cc2c(c(C(=O)NC[C@@H]3CCN(CCCO)C[C@H]3O)c1)OCCCO2 [compound 180] | 43.7 |
| CNc1cc2c(c(C(=O)NC[C@@H]3CCN(CCC4OCCO4)C[C@H]3O)c1)OCCO2 [compound 17] | 25.7 |
| CNc1cc(C(=O)NC[C@@H]2CCN(CCC3OCCO3)C[C@H]2O)c2c(c1Cl)OCCO2 [compound 30] | 31.6 |
| Nc1cc(C(=O)NC[C@@H]2CCN(CCOCCO)C[C@H]2O)c2c(c1Cl)OCCCO2 [compound 72] | 83.2 |
| Nc1cc(C(=O)NC[C@@H]2CCN(CCC3OCCO3)C[C@H]2O)c2c(c1Br)OCCCO2 [compound 146] | 34.7 |
| Cc1cc2c(c(C(=O)NC[C@@H]3CCN(CCCCC(N)=O)C[C@H]3O)c1)OCCCO2 [compound 217] | 1.48 |
| N#CCc1cc2c(c(C(=O)NC[C@@H]3CCNC[C@H]3O)c1)OCCCO2 [compound 121] | 708 |
| COCCCN1CC[C@H](CNC(=O)c2cc(C)cc3c2OCCCO3)[C@@H](O)C1 [compound 251] | 30.9 |
| CC1(CCCN2CC[C@@H](CNC(=O)c3cc(N)c(Cl)c4c3OCCCO4)[C@H](O)C2)OCCO1 [compound 76] | 22.9 |
| CC(C)OCCCN1CC[C@@H](CNC(=O)c2cc(N)c(Cl)c3c2OCCO3)[C@H](O)C1 [compound 93] | 17 |
| CCCNc1cc2c(c(C(=O)NC[C@@H]3CCN(CCCC#N)C[C@H]3O)c1)OCCCO2 [compound 131] | 135 |
| N#Cc1cc2c(c(C(=O)NC[C@@H]3CCN(CCC4OCCO4)C[C@H]3O)c1)OCCCO2 [compound 170] | 16.2 |
| CNc1cc(C(=O)NC[C@@H]2CCN(CC3CCCO3)C[C@H]2O)c2c(c1Cl)OCCO2 (some centres unmarked) [compound 129] | 16.2 |
| CCCCN1CC[C@@H](CNC(=O)c2cc(C)cc3c2OCCCO3)[C@H](O)C1 [compound 164] | 1 |

| Compound | IC50 [nM] |
| --- | --- |
| Cc1cc2c(c(C(=O)NC[C@@H]3CCN(CCCC(=O)N4CCCC4)C[C@H]3O)c1)OCCCO2 [compound 224] | 1.78 |
| CNc1cc2c(c(C(=O)NC[C@@H]3CCN(CCC4OCCO4)C[C@H]3O)c1)OCCCO2 [compound 13] | 708 |
| Nc1cc2c(c(C(=O)NC[C@@H]3CCN(CCCO)C[C@H]3O)c1)OCCO2 [compound 117] | 1.55 |
| Nc1cc(C(=O)NC[C@@H]2CCN(CCCCO)C[C@H]2O)c2c(c1Cl)OCCO2 [compound 53] | 20 |
| Nc1cc2c(c(C(=O)NC[C@@H]3CCN(CCOCCO)C[C@H]3O)c1)OCCCO2 [compound 69] | 490 |
| CNCCCCN1CC[C@@H](CNC(=O)c2cc(NC)cc3c2OCCCO3)[C@H](O)C1 [compound 91] | 229 |
| CC1(CCCN2CC[C@@H](CNC(=O)c3cc(N)c(Cl)c4c3OCCO4)[C@H](O)C2)OCCO1 [compound 43] | 13.2 |
| CCCCN1CC[C@@H](CNC(=O)c2cc(N)cc3c2OCCCO3)[C@H](O)C1 [compound 110] | 19.1 |
| Cc1cc2c(c(C(=O)NC[C@@H]3CCN(CCCOC(C)C)C[C@H]3O)c1)OCCCO2 [compound 212] | 0.813 |
| Cc1cc2c(c(C(=O)NC[C@@H]3CCN(CCCC#N)C[C@H]3O)c1)OCCCO2 [compound 166] | 4.27 |
| COc1cc2c(c(C(=O)NC[C@@H]3CCN(CCCC#N)C[C@H]3O)c1)OCCCO2 [compound 128] | 16.6 |
| Cc1cc2c(c(C(=O)NC[C@H]3CCN(CCCC(N)=O)C[C@H]3O)c1)OCCCO2 [compound 249] | 37.2 |
| CCCCNc1cc2c(c(C(=O)NC[C@@H]3CCN(CCCOC)C[C@H]3O)c1)OCCCO2 [compound 157] | 81.3 |
| CC(C)OCCCN1CC[C@@H](CNC(=O)c2cc(N)cc3c2OCCO3)[C@H](O)C1 [compound 23] | 19.1 |
| Cc1cc2c(c(C(=O)NC[C@H]3CCN(CCCC#N)C[C@H]3O)c1)OCCCO2 [compound 241] | 19.5 |
| Nc1cc(C(=O)NCC2CCN(CC3CCCO3)C[C@H]2O)c2c(c1Cl)OCCCO2 (some centres unmarked) [compound 51] | 14.5 |
| COCCCCN1CC[C@@H](CNC(=O)c2cc(N)c(Br)c3c2OCCO3)[C@H](O)C1 [compound 139] | 39.8 |
| COCCCN1CC[C@@H](CNC(=O)c2cc(N)c(Br)c3c2OCCCO3)[C@H](O)C1 [compound 155] | 55 |
| N#CCCCN1CC[C@@H](CNC(=O)c2cc(N)c(Cl)c3c2OCCO3)[C@H](O)C1 [compound 15] | 30.2 |
| CC(=O)CCCN1CC[C@@H](CNC(=O)c2cc(C#N)cc3c2OCCCO3)[C@H](O)C1 [compound 223] | 3.72 |
| CCCCN1CC[C@@H](CNC(=O)c2cc(NCC)cc3c2OCCCO3)[C@H](O)C1 [compound 161] | 85.1 |
| Nc1cc2c(c(C(=O)NC[C@@H]3CCN(CCC4OCCO4)C[C@H]3O)c1)OCCCO2 [compound 118] | 60.3 |
| CNc1cc2c(c(C(=O)NC[C@@H]3CCN(CCCC#N)C[C@H]3O)c1)OCCCO2 [compound 38] | 288 |
